Laboratory results as given in patent publication US7749491B2, “Compounds and methods to enhance rAAV transduction” (priority 2003, dated 2010).

Experiments:
[1] = tested on: polarized human bronchial epithelial cells; conditions: hypotonic EGTA solution; cited from earlier work
HeLa cells [2] = experiment: Luciferase rAAV transduction of HeLa cells with LLnL / doxorubicin; assay type: cell-based
Procedure: (§1) C. To determine whether combinations of agents that enhance rAAV transduction efficiency have synergistic or additive effects when used in combination, cells were contacted with the proteosome modulator, doxorubicin, and the proteosome inhibitor Z-LLL or LLnL. Different AAV vectors were tested, including splicing vectors and pseudotyped rAAV. Viral stocks utilized were as follows: Av2RSVluc, 5×10^8 particle/μl; Av2RSVlucCap5 (also referred to as Av2/5 CMVLuc), 2×10^9 particle/μl; Av2CMVluc, 1.3×10^9 particle/μl; and Av2CMVlucCap5, 1.1×10^9 particle/μl. Combinations of agents were compared to the agents used alone to determine the efficiency of transduction. LLnL was used at 40, 200 or 400 μM, Z-LLL at 4 μM and doxorubicin at 0.5 or 1 μM when employed alone. When a combination of LLnL and doxorubicin was used, LLnL was used at 4, 10, 20, 40, 200 or 400 μM and doxorubicin at 1 or 5 μM. The apical surface of polarized airway epithelia, HeLa cells or ferret fibroblast was contacted with the agents and rAAV (5×10^9 particles per well).

IB3 cells = experiment: AV2Luc / AV2/5Luc transduction and nuclear uptake in IB3 cells; assay type: cell-based, human; conditions: rAAV2-infected IB3 cells; 40 μM LLnL or 1 μM Dox; 24 hours
Procedure: LLnL and Z-LLL are two tripeptidyl aldehydes shown to inhibit calpains, cathepsins, cysteine proteases as well as the chymotrypsin-like protease activity of proteasomes (Wagner et al., 2002; Donkor, 2000; Sasaki et al., 1990). […] Both classes of proteasome inhibitors bind tightly to the proteasome complex. Dose response curves for these two proteasome-modulating agents were evaluated on IB3, A549, Hela, and primary fibroblasts. The responses were consistent for a number of cell lines and for three different promoters driving luciferase expression. For one set, CMV-driven luciferase constructs with an AAV2-based genome were employed that were packaged into AV2 or AV5 capsids. Cells were infected at various doses of AV2Luc and AV2/5Luc (MOIs 100 to 1000 particles/cell). At the time of infection, cells were treated with various concentrations of LLnL or Doxorubicin and gene expression was assayed at 24 hours post-infection. The effect of proteasome inhibitors on nuclear uptake of virus was evaluated using a previously-described protocol for fractionating viral DNA in the cytoplasm and nucleus (Xiao et al., 2002). Viral DNA content in the cytoplasmic and nuclear fractions was then evaluated by slot blot hybridization against a Luciferase DNA probe.

HeLa cells [3] = experiment: AAV2 FLAG-Luc transduction of HeLa cells (luciferase screen of agents); assay type: cell-based
From the text: A. To screen for agents that enhance rAAV transduction, any number of cells can be used. A range of concentrations of the agent to be tested can be determined based on, for instance desirable profiles of the agent, desirable toxicity profiles of the agent and/or concentration of the agents employed in vivo. The usefulness of the cell type chosen for the screen can be confirmed by testing compounds, e.g., proteosome inhibitors described in Example 1 such as LLnL and ZLL which are known to increase rAAV transduction. For example, a AAV2 FLAG-Luc vector was employed to transduce HeLa, ferret fibroblasts, IB3 and Huh (liver) cells in the presence or absence of the proteosome inhibitor MG132. MG132 was confirmed to enhance AAV transduction in all cell types tested: HeLa cell transduction was enhanced about 500-fold at 80 μM, and 200-fold at 40 μM, MG132; ferret fibroblast cell transduction was enhanced about 200-fold at 20 μM, and 17-fold at 4 μM, MG132; IB3-1 cell transduction was enhanced about 30 to 70-fold at 20 to 80 μM MG132; and Huh-7 cell transduction was enhanced about 15-fold at 20 to 80 μM MG132. There was no difference in rAAV transduction efficiency in HeLa cells when either DMSO or ETOH was used as a vehicle for MG132. B. HeLa cells were selected to screen for additional agents that enhance rAAV transduction, although any cell strain or line; or primary cells, may be employed. […] The range of concentrations of the agents to be tested were selected based on solubility profiles, toxicity profiles and/or concentrations previously employed in vivo.
HeLa cells were infected for 2 hours with an MOI of 100 rAAV in the presence of agents, e.g., ritonavir (Norvir) (1, 10 and 100 μM), cyclosporin A (2.5, 25 and 250 μg/ml), epoxomicin (1, 10 and 50 μM), alcacinomycin A (5, 50 or 500 μM), chymostatin (1, 10 and 100 μM), bestatin (1, 10 and 100 μM), doxorubicin (adriamycin) (0.1, 1 and 10 μM), camptothecin (camptosar) (1, 10 and 100 μM), eicosapentanoic acid (1, 10 and 100 μM), tannic acid (2, 20, 200 and 2000 μM), simvastatin, prodrug (2, 20 and 200 μM), cisplatin (0.2, 2 and 20 μg/mL), and chloroquine (4, 40 and 400 μM). Forty-eight hours after infection, cells were harvested for analysis. rAAV transduction was measured by removing the media from the cell cultures, adding 100 μL reporter lysis buffer (RLB) and freezing. The supernatant was thawed and transferred to microfuge tubes, freeze thawed an additional 2 times, clarified by centrifugation for 10 minutes and then analyzed for reporter gene expression on the luminometer. Protein was determined by Bradford analysis and results were expressed as relative light units per mg protein (RLU/mg).
Based on results with doxorubicin, a small number of FDA approved anthracyclines were tested for their relative in vitro and in vivo activities on AAV transduction. HeLa cells were infected with 100 ppc AAV2FLAG-Luc for 2 hours in the presence of different anthracyclines, e.g., doxorubicin, daunarubicin (Cerubidine), epirubicin (Ellence™), and idarubicin (Idamycin®), and cells harvested 48 hours later. The anthracyclines were pharmaceutical grade, and prepared according to the manufacturer's instructions. Prior to use, the agents were diluted in sterile water to an equal mass, e.g., 0.6 μg/mL, 3 μg/mL and 6 μg/mL. For example, 3 μg/mL idamycin increased luciferase expression by over 5000-fold while doxorubin increased luciferase expression by 58-fold. Generally, the potency was as follows: idarubicin>daunarubicin>epirubicin>doxorubicin.

A549 cells = experiment: AV2Luc / AV2/5Luc transduction of A549 cells with LLnL / doxorubicin; assay type: cell-based, human
ferret fibroblast = experiment: rAAV transduction of ferret fibroblasts with LLnL / doxorubicin; assay type: cell-based; conditions: for concentration at which transduction is enhanced: ferret fibroblast
Procedure: as §1

[4] = tested on: polarized human airway epithelia; experiment: Luciferase rAAV2 / rAAV5-capsid transduction of polarized human airway epithelia; assay type: cell-based; conditions: for enhancement of transduction from the apical surface: LLnL 40 μM and/or Dox 5 μM at the time of infection; for concentration at which transduction is enhanced: polarized airway epithelial cells
[5] = tested on: primary fetal fibroblasts; experiment: rAAV transduction of primary fetal fibroblasts with LLnL, Dox or both; assay type: cell-based; conditions: LLnL by itself
Procedure: Hela, A549, IB3, and primary fetal fibroblasts were evaluated for AV2Luc and AV2/5Luc transduction in the presence of LLnL, Dox, or LLnL+Dox at various concentrations. The data shown is from Hela and A549 cells at the most optimal dose combination that induces rAV2Luc transduction to a greater extent than each compound alone.

[6] = tested on: polarized human bronchial epithelial cells; assay type: cell-based
Procedure: Primary culture of human bronchial epithelia and reagents utilized. Primary human airway epithelial cells were collected by enzymatic digestion of bronchial samples from lung transplants, as previously described (Kondo et al., 1991; Zabner et al., 1996). Isolated primary airway cells were seeded at a density of 5×10^5 cells/cm^2 onto collagen-coated Millicell-HA culture inserts (Millipore Corp., Bedford, Mass.). Primary cultures were grown at the air-liquid interface for more than 2 weeks, by which time differentiation into a mucociliary epithelium occurs. The culture medium, used to feed only the basolateral side of the cells, contained 49% DMEM, 49% Ham's F12 and 2% Ultraser G (BioSepra, Cedex, France). Dimethyl Sulphoxide (DMSO), camptothecin (Camp), etoposide (Etop), aphidicolin (Aphi), hydroxyurea (HU) and genistein (Geni) were purchased from Sigma (St. Louis, Mo.). Tripeptidyl aldehyde proteasome inhibitors N-Acetyl-L-Leucyl-L-Leucyl-Norleucine (LLnL) and benzyloxycarbonyl-L-leucyl-L-leucyl-L-leucinal (Z-LLL) were purchased from Calbiochem-Novabiochem Corporation (La Jolla, Calif.). Ubiquitin ligase (E3) inhibitors were obtained from Bachem Bioscience Inc. (King of Prussia, Pa.). Anti-AAV capsid monoclonal antibody (Anti-VP1, 2 and 3) was purchased from American Research Products (Belmont, Mass.) and anti-ubiquitin antibody was purchased from Santa Cruz Biotechnology Inc. (Santa Cruz, Calif.).
Transduction of polarized airway epithelial cells and primary human fibroblasts. rAAV infection of fully differentiated bronchial cells was performed as described in Duan et al. (1998). For infections from the apical surface of the airway cells, 5 μl rAAV was mixed with 50 μl of culture media and applied directly onto the apical compartment of Millicell inserts (MOI=10,000 particles/cell). During apical infection, the basolateral side of the Millicell was continuously bathed in culture media. Gene transfer to the basal side was performed by inverting Millicell inserts and applying viral vector to the bottom of the supporting filter membrane in a 50 μl volume for 2 hours. Subsequently, Millicell inserts were returned to the upright position, in the continued presence of the original viral inoculum plus an additional 450 μl of media. For both apical and basolateral infections, rAAV containing media was removed after 24 hours and replaced with either fresh culture media (for the basal side) or exposed to air (for the apical side). To test the effect of different agents on the efficiency of AAV transduction in polarized airway cells, 1 μl of each solution was mixed with AAV prior to infection of airway epithelia. Agents were usually presented during the 24 hours AAV infection period unless indicated otherwise. Most of the agents were dissolved in DMSO except for hydroxyurea (dissolved in phosphate buffered saline), H-Leu-Ala-OH (dissolved in 0.9% glacial acetic acid) and H-His-Ala-OH (dissolved in 50% methanol). The working concentrations of the agents were as follows: 0.1 μM camptothecin, 10 μM etoposide, 5 μg/ml aphidicolin, 40 mM hydroxyurea, 50 μM genistein, 40 μM LLnL and 4 μM Z-LLL. When the ubiquitin ligase (E3) inhibitors (H-Leu-Ala-OH and H-His-Ala-OH) were used, airway cells were pretreated with a combination of both inhibitors at a final concentration of 2 mM for 60 minutes prior to infection, followed by the continued presence of inhibitor (0.2 mM) during the entire 24 hours infection period from the basolateral surface. Studies involving EGTA treatment were performed by transiently treating the apical membrane of polarized airway epithelia with 3 mM EGTA in water for 10 minutes (Duan et al., 1998). Following hypotonic EGTA treatment, cultures were washed twice with culture medium and infected with rAAV in the presence or absence of 40 μM LLnL. Human primary fibroblast cells (P4) were maintained in 10% fetal bovine serum (FBS), 1% penicillin and streptomycin, and 89% DMEM. […]

[7] = Toxicity of proteasome inhibitors in mice; assay type: in vivo, mouse; conditions: 10, 100, and 1000 fold higher effective doses; intra-tracheal and systemic (IV) delivery
Procedure: Long-term enhancement of rAAV transduction by proteasome inhibitor in vivo. To evaluate the potential utility of proteasome inhibitors for in vivo gene therapy, both the toxicity and efficacy of these agents for in vivo rAAV mediated gene transfer in the mouse lung was tested. To assess the toxicity of these proteasome inhibitors in mice, 10, 100, and 1000 fold higher effective doses of LLnL or Z-LLL were administered than used to induce gene transfer in polarized airway cells, using both intra-tracheal and systemic (IV) delivery. No toxicity was indicated by histologic evaluation of the lung and liver or was evidenced by the death of animals. To investigate whether these proteasome inhibitors could improve rAAV transduction in vivo, AV.LacZ (5×10^10 particles) was delivered either alone or in the presence of 400 μM Z-LLL by intranasal administration. Mouse lungs were harvested at 3, 10 and 150 days post-infection to evaluate short and long term effects. […] Targeted transgene expression was predominantly confined to the conducting airways, rather than in the parenchyma. Alveolar cells were rarely transduced. […] The range of transgene expression in distal and proximal airways was 0 to 4% and 5 to 18%, respectively.

Compound | increase of AAV transduction from the apical surface [1] | concentration at which transduction is enhanced (HeLa cells [2]) | fraction of viral DNA in the nuclear compartment (IB3 cells) | increase of luciferase expression (HeLa cells [3]; 3 μg/mL, 100 ppc AAV2FLAG-Luc 2 hours, harvested 48 hours) | outcome in cell line screening (HeLa cells [3]; HeLa screen) | concentration at which transduction is enhanced (A549 cells) | concentration at which transduction is enhanced (ferret fibroblast) | enhancement of transduction with lacZ splicing vectors (ferret fibroblast; ferret fibroblasts infected with lacZ splicing vectors) | enhancement of transduction from the apical surface [4] | concentration at which transduction is enhanced [4] | induction of transduction [5] | time of peak of augmentation in AAV transduction, mucosal co-administration ([6]; LLnL and rAAV to the mucosal surface) | augmentation in transgene expression ([6]; applied to the serosal surface along with rAAV, 2 days post infection, LLnL 40 μM) | toxicity to cells on continual administration ([6]; continual administration, transgene expression ablated by 10 days) | time of transient peak in gene expression, serosal infection ([6]; rAAV from the serosal surface in the presence of LLnL) | toxicity (histologic evaluation of lung and liver, death of animals) [7] | polarity of enhancement of AV2Luc and AV2/5Luc transduction ([4]; LLnL 40 μM, 5 and 14 days) | effect on AV2.RSVluc transduction ([4]; apical and basolateral infection) | increase of AV2.RSVlucCap5 transduction ([4]; virus applied to the apical surface)
O=C(O)CN(CCOCCOCCN(CC(=O)O)CC(=O)O)CC(=O)O [EGTA] | 7 to 10 fold |  |  |  |  |  |  |  |  |  |  |  |  |  |  |  |  |  | 
COc1cccc2c1C(=O)c1c(O)c3c(c(O)c1C2=O)C[C@@](O)(C(=O)CO)C[C@@H]3O[C@H]1C[C@H](N)[C@H](O)[C@H](C)O1 [doxorubicin] |  | 1 µM | significantly increased the fraction of viral DNA in the nuclear compartment | 58 fold | tested positive | 5 µM | 1 µM | about 100 fold | 100 fold | 5 µM |  |  |  |  |  |  |  |  | 
N-acetyl-L-leucinyl-L-leucinal-L-norleucinal [LLnL] |  | 40 µM | significantly increased the fraction of viral DNA in the nuclear compartment |  |  | 200 to 400 µM | 40 µM |  | 10 fold | 40 µM | 10 fold | 22 days | greater than 200 fold | toxic to cells | 72 h | No toxicity | only apical transduction for both AAV serotypes was enhanced | augments AV2.RSVluc transduction from the apical and basolateral surfaces | 12 fold
